{"source": "paper PMC7576608", "about": "“Mechanisms of telomerase inhibition by oxidized and therapeutic dNTPs” (Nature Communications, 2020)", "target": "telomerase (Homo sapiens, UniProt O14746)", "sequence (O14746 whole entry)": "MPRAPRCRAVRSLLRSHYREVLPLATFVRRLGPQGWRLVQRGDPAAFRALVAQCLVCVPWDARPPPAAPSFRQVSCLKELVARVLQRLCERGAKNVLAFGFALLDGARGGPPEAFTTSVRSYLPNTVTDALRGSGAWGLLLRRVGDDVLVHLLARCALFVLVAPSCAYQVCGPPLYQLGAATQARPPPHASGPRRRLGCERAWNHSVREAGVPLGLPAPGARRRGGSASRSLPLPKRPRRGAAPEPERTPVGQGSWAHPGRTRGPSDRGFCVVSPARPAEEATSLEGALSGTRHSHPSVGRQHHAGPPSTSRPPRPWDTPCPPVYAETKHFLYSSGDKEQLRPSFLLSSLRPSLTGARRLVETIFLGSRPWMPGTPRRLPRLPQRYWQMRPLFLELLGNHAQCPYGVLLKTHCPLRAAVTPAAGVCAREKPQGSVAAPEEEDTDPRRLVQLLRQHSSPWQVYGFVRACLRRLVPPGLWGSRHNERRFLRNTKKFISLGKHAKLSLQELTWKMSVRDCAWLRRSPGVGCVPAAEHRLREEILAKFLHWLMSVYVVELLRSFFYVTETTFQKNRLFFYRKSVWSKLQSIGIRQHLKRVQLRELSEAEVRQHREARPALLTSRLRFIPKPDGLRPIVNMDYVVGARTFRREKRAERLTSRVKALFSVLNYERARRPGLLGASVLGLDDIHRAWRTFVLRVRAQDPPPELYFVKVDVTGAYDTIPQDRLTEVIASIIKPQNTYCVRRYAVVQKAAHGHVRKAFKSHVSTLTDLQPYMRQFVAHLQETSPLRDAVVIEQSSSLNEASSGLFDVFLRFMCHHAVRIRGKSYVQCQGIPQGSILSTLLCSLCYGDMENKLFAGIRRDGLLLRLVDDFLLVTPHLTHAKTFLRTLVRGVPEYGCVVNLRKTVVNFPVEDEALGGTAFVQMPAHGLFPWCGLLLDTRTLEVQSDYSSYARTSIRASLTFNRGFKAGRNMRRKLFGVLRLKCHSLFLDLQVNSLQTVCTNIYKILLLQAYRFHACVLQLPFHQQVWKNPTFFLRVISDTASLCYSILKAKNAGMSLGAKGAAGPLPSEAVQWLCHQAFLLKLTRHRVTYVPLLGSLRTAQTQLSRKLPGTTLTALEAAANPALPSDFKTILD", "assay": "Telomerase repeat processivity IC50: modified dNTP titrated into reactions with all four natural dNTPs", "assay_type": "biochemical", "set-up": "made in house; anti-FLAG immunopurification, eluted with 3xFLAG peptide", "conditions": "for YIntercept (line fit of ln(100-%LB) vs # telomere repeats) / ln(100-%LB): n1-n3; for Processivity R 1/2: replicates n1-n3", "description": "In order to better understand the ability of modified dNTPs to compete with natural dNTPs for telomerase utilization, we added modified dNTPs to reactions containing all four natural dNTPs. […] The calculated IC50 determines the concentration required to reduce repeat processivity in the bulk reactions by half. However, it is important to note that bulk experiments cannot distinguish effects on individual telomeres, since extended telomeres mask unextended telomeres. Incorporation of a chain terminator during any step will terminate extension of the affected telomere, and just five critically short telomeres are sufficient to trigger senescence. Therefore, repeat processivity IC50 values are not necessarily an indicator of the inhibitory potency, but provide information on selectivity for modified dNTPs compared to natural dNTPs. […] The ability to purify sufficient quantities of tcTERT enables characterization of the catalytic nucleotide addition by pre-steady-state single turnover kinetics using a defined DNA–RNA primer–template substrate. The catalytic efficiency of incorporating a single dNTP is measured by dividing the observed nucleotide incorporation rate constant, kpol, by the equilibrium dissociation constant for dNTP binding to the tcTERT–primer–template complex (Kd)[44].\nThe reactions were started by the addition of 3 μl of immunopurified telomerase eluent, incubated at 37 °C for 1 h, then terminated with 2 μl of […] and heat inactivated at 65 °C for 20 min. An equal volume of loading buffer (94% formamide, 0.1× TBE, 0.1% bromophenol blue, 0.1% xylene cyanol) was added to the reaction eluent. The samples were heat denatured for 10 min at 100 °C and loaded onto a 14% denaturing acrylamide gel (7 M urea, 1× TBE) and electrophoresed for 90 min at constant 38 W. Samples were imaged using a Typhoon phosphorimager (GE Healthcare). Percent primer extension was calculated with ImageQuant TL 8.2 by measuring the intensity of each product band and dividing by the total radioactivity in the lane or total products, as indicated in the figure legends.\nThe processivity was calculated as described[40],[67]. Repeat processivity from the direct telomerase extension assays was calculated as R1/2 (equivalent to the half-time for decay in an exponential time course), which represents the median length of DNA product formed, expressed in terms of number of telomere repeats. First, the total volume counts for each product band extend by one or more telomere repeats were obtained using Image Quant TL. The volume counts were then normalized by dividing by the number of radiolabeled guanosines incorporated into the extended products based on the number of repeats added, termed corrected volume (corr vol). The “percent left behind” (%LB) was calculated for each product band by summing the counts for that product band and for every product band below (shorter products), divided by the total counts for the lane, and then multiplied by 100. The natural log of (100−%LB) was calculated and then plotted vs. repeat number for each product length. A linear regression line was fit to the data to determine the slope of the line. The R1/2 value was calculated by dividing −ln(2) by the slope of each fitted line (R1/2 = −ln(2)/slope).\nSupplementary Fig 8. IC50 values for telomerase processivity inhibition. Telomerase reactions were conducted with cellular relevant concentrations of all four natural dNTPs and increasing concentrations of the modified dNTP analog from 0 to 10,000 μM to calculate. (a) The natural log of (100-%LB) was plotted vs repeat number. A straight line was fit to the data and the R1/2 value was calculated by dividing –ln(2) by the slope of each line. Plots shown from one experiment are […]", "key": {"[1]": {"conditions": "fit of R 1/2 vs log(concentration), 8-oxo-dATP, replicates N1-N3"}}, "note": "Values joined by “and” are separate entries in the source; they are usually repeats but may differ in a detail not shown here. Equal values may be shown once. Read-outs that look alike come from different tables or passages of the source.", "data": [{"smiles": "Nc1ncnc2c1[nH]c(=O)n2C1CC(O)C(COP(=O)(O)OP(=O)(O)OP(=O)(O)O)O1", "note": "(centres unmarked) [8-oxo-dATP]", "values": [{"measurement": "YIntercept (line fit of ln(100-%LB) vs # telomere repeats)", "setting": "8-oxo-dATP 31μM", "value": "3.85 and 3.01 and 3.93"}, {"measurement": "ln(100-%LB)", "setting": "8-oxo-dATP 31μM, telomere repeat 3", "value": "2.65 and 1.66 and 2.57"}, {"measurement": "ln(100-%LB)", "setting": "8-oxo-dATP 31μM, telomere repeat 4", "value": "2.41 and 1.27 and 2.30"}, {"measurement": "Processivity R 1/2", "setting": "8-oxo-dATP 31.25 μM", "value": "2.10 (2×) and 1.89"}, {"measurement": "YIntercept (line fit of ln(100-%LB) vs # telomere repeats)", "setting": "8-oxo-dATP 62μM", "value": "3.73 and 4.08 and 3.84"}, {"measurement": "ln(100-%LB)", "setting": "8-oxo-dATP 62μM, telomere repeat 2", "value": 3.20}, {"measurement": "ln(100-%LB)", "setting": "8-oxo-dATP 62μM, telomere repeat 3", "value": "2.53 and 2.54 and 2.74"}, {"measurement": "ln(100-%LB)", "setting": "8-oxo-dATP 62μM, telomere repeat 4", "value": "2.27 and 2.24 and 2.50"}, {"measurement": "ln(100-%LB)", "setting": "8-oxo-dATP 62μM, telomere repeat 5", "value": "2.02 and 1.94 and 2.24"}, {"measurement": "ln(100-%LB)", "setting": "8-oxo-dATP 62μM, telomere repeat 6", "value": "1.71 and 1.56 and 1.91"}, {"measurement": "ln(100-%LB)", "setting": "8-oxo-dATP 62μM, telomere repeat 7", "value": "1.38 and 1.06 and 1.53"}, {"measurement": "ln(100-%LB)", "setting": "8-oxo-dATP 62μM, telomere repeat 8", "value": "1.13 and 0.68 and 1.26"}, {"measurement": "Processivity R 1/2", "setting": "8-oxo-dATP 62.5 μM", "value": "1.60 (2×) and 2.26"}, {"measurement": "YIntercept (line fit of ln(100-%LB) vs # telomere repeats)", "setting": "8-oxo-dATP 250μM", "value": "3.94 and 3.80 and 3.85"}, {"measurement": "Processivity R 1/2", "setting": "8-oxo-dATP 250 μM", "value": "1.82 (2×) and 2.54"}, {"measurement": "ln(100-%LB)", "setting": "8-oxo-dATP 250μM, telomere repeat 2", "value": "3.33 and 3.42 and 3.45"}, {"measurement": "ln(100-%LB)", "setting": "8-oxo-dATP 250μM, telomere repeat 3", "value": "2.64 and 2.77 and 2.84"}, {"measurement": "ln(100-%LB)", "setting": "8-oxo-dATP 250μM, telomere repeat 4", "value": "2.37 and 2.53 and 2.60"}, {"measurement": "ln(100-%LB)", "setting": "8-oxo-dATP 250μM, telomere repeat 5", "value": "2.09 and 2.29 and 2.37"}, {"measurement": "ln(100-%LB)", "setting": "8-oxo-dATP 250μM, telomere repeat 6", "value": "1.75 and 2.02 and 2.10"}, {"measurement": "ln(100-%LB)", "setting": "8-oxo-dATP 250μM, telomere repeat 7", "value": "1.29 and 1.68 and 1.81"}, {"measurement": "ln(100-%LB)", "setting": "8-oxo-dATP 250μM, telomere repeat 8", "value": "0.96 and 1.40 and 1.57"}, {"measurement": "ln(100-%LB)", "setting": "8-oxo-dATP 250μM, telomere repeat 9", "value": "0.67 and 1.15 and 1.32"}, {"measurement": "YIntercept (line fit of ln(100-%LB) vs # telomere repeats)", "setting": "8-oxo-dATP 500μM", "value": "3.61 and 4.18 and 3.88"}, {"measurement": "Processivity R 1/2", "setting": "8-oxo-dATP 500 μM", "value": "1.42 (2×) and 2.03"}, {"measurement": "ln(100-%LB)", "setting": "8-oxo-dATP 500μM, telomere repeat 2", "value": "3.10 and 3.59 and 3.36"}, {"measurement": "ln(100-%LB)", "setting": "8-oxo-dATP 500μM, telomere repeat 3", "value": "2.50 and 3.01 and 2.60"}, {"measurement": "ln(100-%LB)", "setting": "8-oxo-dATP 500μM, telomere repeat 4", "value": "2.24 and 2.80 and 2.29"}, {"measurement": "ln(100-%LB)", "setting": "8-oxo-dATP 500μM, telomere repeat 5", "value": "1.94 and 2.56 and 2.01"}, {"measurement": "ln(100-%LB)", "setting": "8-oxo-dATP 500μM, telomere repeat 6", "value": "1.62 and 2.28 and 1.70"}, {"measurement": "ln(100-%LB)", "setting": "8-oxo-dATP 500μM, telomere repeat 7", "value": "1.26 and 1.91 and 1.22"}, {"measurement": "ln(100-%LB)", "setting": "8-oxo-dATP 500μM, telomere repeat 8", "value": "0.97 and 1.63 and 0.93"}, {"measurement": "YIntercept (line fit of ln(100-%LB) vs # telomere repeats)", "setting": "8-oxo-dATP 750μM", "value": "4.26 and 4.00 and 3.87"}, {"measurement": "Processivity R 1/2", "setting": "8-oxo-dATP 750 μM", "value": "1.36 (2×) and 2.25"}, {"measurement": "ln(100-%LB)", "setting": "8-oxo-dATP 750μM, telomere repeat 2", "value": "3.17 and 3.44 and 3.29"}, {"measurement": "ln(100-%LB)", "setting": "8-oxo-dATP 750μM, telomere repeat 3", "value": "2.50 and 2.85 and 2.65"}, {"measurement": "ln(100-%LB)", "setting": "8-oxo-dATP 750μM, telomere repeat 4", "value": "2.17 and 2.63 and 2.39"}, {"measurement": "ln(100-%LB)", "setting": "8-oxo-dATP 750μM, telomere repeat 5", "value": "1.81 and 2.42 and 2.15"}, {"measurement": "ln(100-%LB)", "setting": "8-oxo-dATP 750μM, telomere repeat 6", "value": "1.40 and 2.17 and 1.87"}, {"measurement": "YIntercept (line fit of ln(100-%LB) vs # telomere repeats)", "setting": "8-oxo-dATP 1000μM", "value": "4.48 and 4.47 and 4.44"}, {"measurement": "Processivity R 1/2", "setting": "8-oxo-dATP 1000 μM", "value": "0.53 (2×) and 0.83"}, {"measurement": "YIntercept (line fit of ln(100-%LB) vs # telomere repeats)", "setting": "8-oxo-dATP 1500μM", "value": "5.00 and 4.48 and 4.84"}, {"measurement": "Processivity R 1/2", "setting": "8-oxo-dATP 1500 μM", "value": 0.00}, {"measurement": "Processivity R 1/2", "setting": "8-oxo-dATP 2000 μM", "value": 0.00}, {"measurement": "IC50", "setting": "cellular relevant natural dNTPs, modified dNTP titrated 0 to 10,000 μM, based on repeat processivity, mean ± SD, read-out: Telomerase processivity IC50", "value": "946 ± 49", "unit": "µM"}, {"measurement": "LogIC50", "setting": "fit of R 1/2 vs log(concentration μM), 8-oxo-dATP, replicates N1-N3", "value": "2.95 and 2.99 (2×)"}, {"measurement": "Bottom (best-fit value)", "setting": "[1]", "value": "-0.12 and 0.69 and -0.000954"}, {"measurement": "HillSlope", "setting": "[1]", "value": "-4.30 and -46.77 and -16.13"}, {"measurement": "Span (best-fit value)", "setting": "[1]", "value": "1.94 and 1.65 and 2.29"}, {"measurement": "Top (best-fit value)", "setting": "[1]", "value": "1.81 and 2.33 and 2.29"}, {"measurement": "IC50", "setting": "log of processivity IC50 (concentration in μM), Supplementary Fig 8b, read-out: Log IC50 (converted)", "value": 794, "unit": "µM"}, {"measurement": "IC50", "setting": "repeat processivity R 1/2, 8-oxo-dATP, mean of N1-N3, read-out: Mean IC50", "value": 946, "unit": "µM"}, {"measurement": "IC50", "setting": "repeat processivity R 1/2, 8-oxo-dATP, single replicates N1-N3, read-out: IC50", "value": "890 µM and 982 µM and 966 µM"}]}]}
